Test results published in patent publication US8436043B2 (Takeda Pharmaceutical Company Limited, priority 2008, dated 2013).

Biological target: T1, human glucagon receptor (Homo sapiens, UniProt P47871)
T1 construct: made in house; host or cells: FreeStyle CHO cells, transient transfection with pMSRαneo/hGCGR; membrane fraction (35,000 rpm pellet)
Assay: Glucagon binding inhibitory activity ([125I]-glucagon binding to glucagon receptor membrane protein)
Conditions: human glucagon receptor membrane protein, [125I]-glucagon, 90 min room temperature
How it was run: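 Receptor source was a membrane fraction of transiently transfected CHO cells bearing human receptor; 90 min room-temperature binding, filtration harvest, scintillation counting.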

T1 sequence (P47871 26-477): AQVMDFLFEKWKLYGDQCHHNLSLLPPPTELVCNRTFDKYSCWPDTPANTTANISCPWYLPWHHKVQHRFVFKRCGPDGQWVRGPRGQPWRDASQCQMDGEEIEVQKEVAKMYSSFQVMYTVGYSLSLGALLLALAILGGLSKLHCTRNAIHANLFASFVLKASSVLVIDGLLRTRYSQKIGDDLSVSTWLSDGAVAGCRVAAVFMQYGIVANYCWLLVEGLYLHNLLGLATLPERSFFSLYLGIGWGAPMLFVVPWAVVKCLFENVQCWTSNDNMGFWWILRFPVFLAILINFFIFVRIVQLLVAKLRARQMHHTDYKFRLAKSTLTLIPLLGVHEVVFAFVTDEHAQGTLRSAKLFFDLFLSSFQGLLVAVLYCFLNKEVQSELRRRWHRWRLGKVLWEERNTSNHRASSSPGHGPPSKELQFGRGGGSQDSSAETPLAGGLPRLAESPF

IC50 | Structure (SMILES)
320 nM | CN(CCC(=O)O)C(=O)c1ccc(NC(c2cn(-c3ccc(OC(F)(F)F)cc3)nc2OCc2ccccc2)C2CCCCC2)cc1 (centres unmarked) [Example 61, 3-{[(4-{[{3-(benzyloxy)-1-[4-(trifluoromethoxy)phenyl]-1H-pyrazol-4-yl}(cyclohexyl)methyl]amino}phenyl)carbonyl](methyl)amino}-propanoic acid]
210 nM | O=C(O)CCNC(=O)c1ccc(NC(c2cc3ccc(C(F)(F)F)cc3s2)C2CCCCC2)cc1 (centres unmarked) [Example A12, 3-({[4-({cyclohexyl[6-(trifluoromethyl)-1-benzothiophen-2-yl]methyl}amino)phenyl]carbonyl}amino)propanoic acid]

Same assay, conditions: test compound 10 μM; 0.4% DMSO = 0%, non-labeled glucagon 1 μM = 100%

inhibitory rate (%) at 10 μM | Structure (SMILES)
80% | COc1ccc2oc(C(Nc3ccc(C(=O)N(C)CCC(=O)O)cc3)C3CCCCC3)c(C)c2c1 (centres unmarked) [Example A43, 3-{[(4-{[cyclohexyl(5-methoxy-3-methyl-1-benzofuran-2-yl)methyl]amino}phenyl)carbonyl](methyl)amino}propanoic acid]

Same assay, conditions: test compound 10 μM; 0.4% DMSO = 0%, non-labeled glucagon 1 μM = 100%; read-out: inhibitory rate (%) at 10 μM

inhibition at 10 µM | Structure (SMILES)
70% | COc1ccc2oc(C(Nc3ccc(C(=O)N(C)CCC(=O)O)cc3)c3ccccc3)c(C)c2c1 (centres unmarked) [Example A114, 3-{[(4-{[(5-methoxy-3-methyl-1-benzofuran-2-yl)(phenyl)methyl]amino}phenyl)carbonyl](methyl)amino}-propanoic acid]
69% | COCCOc1ccc2oc(C(Nc3ccc(C(=O)NCCC(=O)O)cc3)C3CCCCC3)c(C)c2c1 (centres unmarked) [Example A149, 3-[{[4-({cyclohexyl[5-(2-methoxyethoxy)-3-methyl-1-benzofuran-2-yl]methyl}amino)phenyl]carbonyl}amino]propanoic acid]
75% | CN(CCC(=O)O)C(=O)c1ccc(NC(c2cn(-c3ccc(OC(F)(F)F)cc3)nc2OCc2ccccc2)C2CCCCC2)cc1 (centres unmarked) [Example 61, 3-{[(4-{[{3-(benzyloxy)-1-[4-(trifluoromethoxy)phenyl]-1H-pyrazol-4-yl}(cyclohexyl)methyl]amino}phenyl)carbonyl](methyl)amino}-propanoic acid]
83% | Cc1c(C(Nc2ccc(C(=O)N(C)CCC(=O)O)cc2)C(C)C)oc2ccc(OC3CCOCC3)cc12 (centres unmarked) [Example A180, 3-(methyl{[4-({2-methyl-1-[3-methyl-5-(tetrahydro-2H-pyran-4-yloxy)-1-benzofuran-2-yl]propyl}amino)phenyl]carbonyl}amino)propanoic acid]
83% | CCCCCCC(Nc1ccc(C(=O)NCCC(=O)O)cc1)c1cc2cc(Cl)ccc2n1C (centres unmarked) [Example A140, 3-{[(4-{[1-(5-chloro-1-methyl-1H-indol-2-yl)heptyl]amino}phenyl)carbonyl]amino}propanoic acid]
62% | COc1ccc(-n2cc(C(CC(C)C)Nc3ccc(C(=O)NCCC(=O)O)cc3)c(C(C)C)n2)cc1 (centres unmarked) [Example 54, 3-({[4-({1-[1-(4-methoxyphenyl)-3-(1-methylethyl)-1H-pyrazol-4-yl]-3-methylbutyl}amino)phenyl]carbonyl}amino)propanoic acid]
71% | COc1ccc(-n2cc(C(Nc3ccc(C(=O)NCCC(=O)O)cc3)C3CCCCC3)c(C)n2)cc1 (centres unmarked) [Example 23, 3-({[4-({cyclohexyl[1-(4-methoxyphenyl)-3-methyl-1H-pyrazol-4-yl]methyl}amino)phenyl]carbonyl}amino)propanoic acid]
79% | Cc1c(C(Nc2ccc(C(=O)NCCC(=O)O)cc2)C2CCCCC2)oc2ccc(OCc3ccccc3)cc12 (centres unmarked) [Example A158, 3-({[4-({[5-(benzyloxy)-3-methyl-1-benzofuran-2-yl](cyclohexyl)methyl}amino)phenyl]carbonyl}amino)propanoic acid]
90% | Cc1c(C(Nc2ccc(C(=O)N(C)CCC(=O)O)cc2)C2CCCCC2)oc2ccc(N3CCSCC3)cc12 (centres unmarked) [Example A187, 3-[{[4-({cyclohexyl[3-methyl-5-(thiomorpholin-4-yl)-1-benzofuran-2-yl]methyl}amino)phenyl]carbonyl}(methyl)amino]propanoic acid]
80% | Cc1nn(-c2ccccc2)cc1C(Nc1ccc(C(=O)NCCC(=O)O)cc1)C1CCCCC1 (centres unmarked) [Example 17, 3-{[(4-{[cyclohexyl(3-methyl-1-phenyl-1H-pyrazol-4-yl)methyl]amino}phenyl)carbonyl]amino}propanoic acid]
66% | COc1ccc2oc(C(Nc3ccc(C(=O)N(C)CCC(=O)O)cc3)C3CCCCC3)c(Br)c2c1 (centres unmarked) [Example A103, 3-{[(4-{[(3-bromo-5-methoxy-1-benzofuran-2-yl)(cyclohexyl)methyl]amino}phenyl)carbonyl](methyl)amino}-propanoic acid]
53% | COCc1nn(-c2ccccc2)cc1C(Nc1ccc(C(=O)N(C)CCC(=O)O)cc1)C1CCCCC1 (centres unmarked) [Example 38, 3-[{[4-({cyclohexyl[3-(methoxymethyl)-1-phenyl-1H-pyrazol-4-yl]methyl}amino)phenyl]carbonyl}(methyl)amino]propanoic acid]
73% | Cc1nn(-c2ccc(C(F)(F)F)cn2)cc1C(Nc1ccc(C(=O)NCCC(=O)O)cc1)C1CCCCC1 (centres unmarked) [Example 1, 3-[({4-[(Cyclohexyl{3-methyl-1-[5-(trifluormethyl)pyridin-2-yl]-1H-pyrazol-4-yl}methyl)amino]phenyl}carbonyl)amino]propanoic acid]
71% | Cc1c(C(Nc2ccc(C(=O)NCCC(=O)O)cn2)C2CCCCC2)oc2ccc(F)cc12 (centres unmarked) [Example A51, 3-{[(6-{[cyclohexyl(5-fluoro-3-methyl-1-benzofuran-2-yl)methyl]amino}pyridin-3-yl)carbonyl]amino}propanoic acid]
63% | CCc1nn(-c2ccc(OC)cc2)cc1C(CC(C)C)Nc1ccc(C(=O)NCCC(=O)O)cc1 (centres unmarked) [Example 48, 3-({[4-({1-[3-ethyl-1-(4-methoxyphenyl)-1H-pyrazol-4-yl]-3-methylbutyl}amino)phenyl]carbonyl}amino)propanoic acid]
72% | CN(CCC(=O)O)C(=O)c1ccc(NC(c2nn(-c3ccccc3)c3ccccc23)C2CCCCC2)cc1 (centres unmarked) [Example A15, 3-{[(4-{[cyclohexyl(1-phenyl-1H-indazol-3-yl)methyl]amino}phenyl)carbonyl](methyl)amino}propanoic acid]
83% | COCCOCc1c(C(Nc2ccc(C(=O)NCCC(=O)O)cc2)C2CCCCC2)oc2ccc(F)cc12 (centres unmarked) [Example A132, 3-[({4-[(cyclohexyl{5-fluoro-3-[(2-methoxyethoxy)methyl]-1-benzofuran-2-yl}methyl)amino]phenyl}carbonyl)amino]propanoic acid]
76% | CCOc1cccc(-n2cc(C(Nc3ccc(C(=O)NCCC(=O)O)cc3)C3CCCCC3)c(CC)n2)c1 (centres unmarked) [Example 84, 3-({[4-({cyclohexyl[1-(3-ethoxyphenyl)-3-ethyl-1H-pyrazol-4-yl]methyl}amino)phenyl]carbonyl}amino)propanoic acid]
77% | Cc1c(C(Nc2ccc(C(=O)N(C)CCC(=O)O)cc2)C2CCCCC2)sc2cc(C(F)(F)F)cnc12 (centres unmarked) [Example A146, 3-[{[4-({cyclohexyl[3-methyl-6-(trifluoromethyl)thieno[3,2-b]pyridin-2-yl]methyl}amino)phenyl]carbonyl}(methyl)amino]propanoic acid]
74% | CN(CCC(=O)O)C(=O)c1ccc(NC(c2cn(-c3ccc(C(F)(F)F)cn3)nc2CCc2ccccc2)C2CCCCC2)cc1 (centres unmarked) [Example 12, 3-[({4-[(cyclohexyl{3-(2-phenylethyl)-1-[5-(trifluoromethyl)pyridin-2-yl]-1H-pyrazol-4-yl}methyl)amino]phenyl}carbonyl)(methyl)amino]propanoic acid]
76% | COc1ccc2oc(C(Nc3ccc(C(=O)NCCC(=O)O)cc3)C3CCCCC3)c(C)c2c1 (centres unmarked) [Example A30, 3-{[(4-{[cyclohexyl(5-methoxy-3-methyl-1-benzofuran-2-yl)methyl]amino}phenyl)carbonyl]amino}propanoic acid]
86% | Cc1c(C(Nc2ccc(C(=O)NCCC(=O)O)cc2)C(C)C)oc2ccc(OCc3ccccc3)cc12 (centres unmarked) [Example A171, 3-({[4-({1-[5-(benzyloxy)-3-methyl-1-benzofuran-2-yl]-2-methylpropyl}amino)phenyl]carbonyl}amino)propanoic acid]
87% | O=C(O)CCNC(=O)c1ccc(NC(c2cc3ccccc3s2)C2CCCCC2)cc1 (centres unmarked) [Example A6, 3-{[(4-{[1-benzothiophen-2-yl(cyclohexyl)methyl]amino}phenyl)carbonyl]amino}propanoic acid]
51% | COc1ccccc1-n1cc(C(Nc2ccc(C(=O)N(C)CCC(=O)O)cc2)C2CCCCC2)c(C)n1 (centres unmarked) [Example 72, 3-[{[4-({[1-(2-methoxyphenyl)-3-methyl-1H-pyrazol-4-yl](cyclohexyl)methyl}amino)phenyl]carbonyl}(methyl)amino]-propanoic acid]
75% | CCCc1nn(-c2ccc(C(F)(F)F)cn2)cc1C(Nc1ccc(C(=O)N(C)CCC(=O)O)cc1)C1CCCCC1 (centres unmarked) [Example 6, 3-[({4-[(cyclohexyl{3-propyl-1-[5-(trifluoromethyl)pyridin-2-yl]-1H-pyrazol-4-yl}methyl)amino]phenyl}carbonyl)(methyl)amino]propanoic acid]
66% | COc1ccc(-n2cc(C(Nc3ccc(C(=O)N(C)CCC(=O)O)cc3)C3CCCCC3)c(C3CC3)n2)cc1 (centres unmarked) [Example 47, 3-[{[4-({cyclohexyl[3-cyclopropyl-1-(4-methoxyphenyl)-1H-pyrazol-4-yl]methyl}amino)phenyl]carbonyl}(methyl)amino]propanoic acid]
72% | O=C(O)CCNC(=O)c1ccc(NC(c2cc3ccc(C(F)(F)F)cc3s2)C2CCCCC2)cc1 (centres unmarked) [Example A12, 3-({[4-({cyclohexyl[6-(trifluoromethyl)-1-benzothiophen-2-yl]methyl}amino)phenyl]carbonyl}amino)propanoic acid]
85% | Cc1c(C(C)Nc2ccc(C(=O)NCCC(=O)O)cc2)oc2ccc(OCc3ccccc3)cc12 (centres unmarked) [Example A165, 3-({[4-({1-[5-(benzyloxy)-3-methyl-1-benzofuran-2-yl]ethyl}amino)phenyl]carbonyl}amino)propanoic acid]
88% | Cc1c(C(Nc2ccc(C(=O)N(C)CCC(=O)O)cc2)C2CCCCC2)oc2ccc(OC3CCS(=O)(=O)CC3)cc12 (centres unmarked) [Example A199, 3-[({4-[(cyclohexyl{5-[(1,1-dioxidotetrahydro-2H-thiopyran-4-yl)oxy]-3-methyl-1-benzofuran-2-yl}methyl)amino]phenyl}carbonyl)(methyl)amino]propanoic acid]
